Experimental findings from ChEMBL document CHEMBL3627650, “Design, synthesis, and evaluation of new endomorphin analogs with enhanced central antinociception after peripheral administration” (Bioorg Med Chem Lett, 2015) are described below.

pEC50, pKi: −log10 of the molar value. Active and inactive are the calls of the source. No cut-off for these calls is given here.

Experiment [1] concerns Mus musculus. The experiment is described as follows: Antinociceptive activity in mouse assessed as inhibition of tail flick at 2 to 20 nmol, icv measured up to 30 mins relative to control. It counts as functional.
The subject of experiment [2] is Mus musculus. Kind of experiment: Antinociceptive activity in mouse acute phase inflammatory pain model assessed as inhibition of formalin-induced licking/biting behavior at 4 mg/kg, iv. It is filed as functional, organism-based.
Experiment [3] concerns Mus musculus. The experiment is described as follows: Antinociceptive activity in mouse assessed as inhibition of tail flick at 4 mg/kg, iv measured at 5 to 60 mins. It is filed as functional, organism-based.
Experiment [4] has as its system Mus musculus. Kind of experiment: Antinociceptive activity in mouse assessed as inhibition of tail flick at 2 to 20 nmol, icv measured after 30 mins. It counts as functional, organism-based.
The test system of experiment [5] is Mus musculus. Kind of experiment: Antinociceptive activity in mouse prolonged tonic phase inflammatory pain model assessed as inhibition of formalin-induced licking/biting behavior at 4 mg/kg, iv. It counts as functional, organism-based.
Experiment [6] concerns Mus musculus. The experiment is described as follows: Antinociceptive activity in mouse prolonged tonic phase inflammatory pain model assessed as inhibition of formalin-induced licking/biting behavior at 16 mg/kg, iv in presence of opioid receptor antagonist naloxone. It counts as functional, organism-based.
The subject of experiment [7] is Mus musculus. Kind of experiment: Antinociceptive activity in mouse acute phase inflammatory pain model assessed as inhibition of formalin-induced licking/biting behavior at 16 mg/kg, iv in presence of opioid receptor antagonist naloxone. It counts as functional, organism-based.
Experiment [8] concerns Mus musculus. The experiment is described as follows: Antinociceptive activity in iv dosed mouse prolonged tonic phase inflammatory pain model assessed as inhibition of formalin-induced licking/biting behavior. It counts as functional, organism-based.
Experiment [9] relates to Mus musculus. Kind of experiment: Antinociceptive activity in mouse assessed as inhibition of tail flick at 20 nmol, icv in presence of opioid receptor antagonist naloxone. It is filed as functional, organism-based.
For experiment [10], the system named is Mus musculus. The experiment is described as follows: Antinociceptive activity in mouse assessed as inhibition of tail flick at 4 to 16 mg/kg, iv measured at 60 mins relative to control. It is filed as functional.
The target of experiment [11] is Delta-type opioid receptor (Homo sapiens, UniProt P41143). Kind of experiment: Displacement of [3H]-DPDPE from delta opioid receptor (unknown origin) transfected in HEK293 cells. It is filed as cell-based.
Chain of Delta-type opioid receptor (P41143 whole entry): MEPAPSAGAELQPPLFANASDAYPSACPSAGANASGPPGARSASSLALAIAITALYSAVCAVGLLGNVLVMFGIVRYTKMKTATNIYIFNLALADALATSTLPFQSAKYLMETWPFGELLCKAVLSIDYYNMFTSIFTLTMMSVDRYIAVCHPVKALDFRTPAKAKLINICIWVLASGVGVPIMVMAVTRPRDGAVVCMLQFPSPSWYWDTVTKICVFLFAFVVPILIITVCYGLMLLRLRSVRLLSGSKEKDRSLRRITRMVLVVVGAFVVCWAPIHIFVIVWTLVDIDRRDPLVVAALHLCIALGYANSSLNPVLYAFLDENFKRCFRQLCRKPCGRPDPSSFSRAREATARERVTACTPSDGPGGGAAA
Experiment [12] concerns the target T1, Mu-type opioid receptor (Homo sapiens, UniProt P35372). The experiment is described as follows: Displacement of [3H]-DAMGO from mu opioid receptor (unknown origin) transfected in HEK293 cells. It is filed as cell-based. (In a radioligand displacement assay an active substance lowers the binding of a labelled ligand.)
Experiment [13] relates to Mus musculus. The experiment is described as follows: Antinociceptive activity in icv dosed mouse assessed as inhibition of tail flick measured at 5 to 60 mins. It counts as functional. The settings on record: for ED50: central.
Experiment [14] has as its system Mus musculus. Kind of experiment: Antinociceptive activity in mouse assessed as inhibition of tail flick at 16 mg/kg, iv in presence of opioid receptor antagonist naloxone methiodide. It is filed as functional, organism-based.
Experiment [15] relates to Mus musculus. Kind of experiment: Antinociceptive activity in iv dosed mouse acute phase inflammatory pain model assessed as inhibition of formalin-induced licking/biting behavior. It is filed as functional, organism-based.
Experiment [16] concerns Mus musculus. Kind of experiment: Antinociceptive activity in mouse assessed as inhibition of tail flick at 16 mg/kg, iv in presence of opioid receptor antagonist naloxone. It is filed as functional, organism-based.
The species entered for another experiment is Homo sapiens. Kind of experiment: Selectivity ratio of Ki for delta opioid receptor (unknown origin) to Ki for mu opioid receptor (unknown origin).
The target in experiment [17] is T1, Mu-type opioid receptor. The experiment is described as follows: Agonist activity at mu opioid receptor (unknown origin) transfected in HEK293 cells assessed as inhibition of forskolin-stimulated cAMP production. It counts as functional, cell-based.
Experiment [18] concerns Mus musculus. Kind of experiment: Antinociceptive activity in mouse assessed as inhibition of tail flick at 16 mg/kg, iv measured at 5 to 60 mins relative to control. It counts as functional.
Experiment [19] concerns Mus musculus. The experiment is described as follows: Antinociceptive activity in iv dosed mouse assessed as inhibition of tail flick measured at 5 to 60 mins. It is filed as functional, organism-based.
Experiment [20] deals with Mus musculus. The experiment is described as follows: Antinociceptive activity in mouse assessed as inhibition of tail flick at 2 to 20 nmol, icv. It is filed as functional, organism-based. As to conditions: TDE = time-dependent effect.

T1 sequence (P35372 whole entry): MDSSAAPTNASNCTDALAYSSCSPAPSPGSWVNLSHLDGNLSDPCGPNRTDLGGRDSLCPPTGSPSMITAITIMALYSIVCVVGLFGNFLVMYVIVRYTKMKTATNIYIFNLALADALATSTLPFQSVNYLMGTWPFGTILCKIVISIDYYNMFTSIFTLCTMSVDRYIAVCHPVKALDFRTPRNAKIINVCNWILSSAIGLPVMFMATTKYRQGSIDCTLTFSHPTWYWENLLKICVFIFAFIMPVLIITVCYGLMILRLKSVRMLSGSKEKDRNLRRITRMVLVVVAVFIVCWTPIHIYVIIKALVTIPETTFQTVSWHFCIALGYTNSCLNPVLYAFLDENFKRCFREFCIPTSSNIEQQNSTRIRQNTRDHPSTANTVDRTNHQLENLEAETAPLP

In the case of `NC(=O)[C@H](Cc1ccccc1)NC(=O)[C@H](Cc1c[nH]c2ccccc12)NC(=O)[C@@H]1CCCN1C(=O)[C@@H](N)Cc1ccc(O)cc1` [ENDOMORPHIN-1], the MPE with Mus musculus [1] is listed as 52.1%. The result in the experiment on Mus musculus [2], in the experiment with Mus musculus [3], with Mus musculus [4] and in the experiment on Mus musculus [5] was inactive.

The pKi is the Ki on a negative log10 scale, so that one unit is a factor of ten. The low end stands for a high Ki, the high end for a low Ki. One may read the ED50 as the dose that gives a 50% effect, or the effect in half of the subjects. One may read the pEC50 as the EC50 on a negative log10 scale, so that one unit is a factor of ten. By Emax is commonly meant the greatest response seen or fitted, relative to the assay's reference. As for `C=C(C(N)=O)[C@H](NC(=O)[C@H](Cc1c[nH]c2ccccc12)NC(=O)[C@@H]1CCCN1C(=O)[C@@H](N)Cc1ccc(O)cc1)c1cccs1`, the outcome in the experiment with Mus musculus [6], in the experiment with Mus musculus [7], with Mus musculus [9] and in the experiment with Mus musculus [16] was inactive. For the same compound, the Activity result with Mus musculus [8] is “Dose-dependent effect”; in the experiment with Mus musculus [13], “Dose-dependent effect”; with Mus musculus [15] it was “Dose-dependent effect”; with Mus musculus [19] it was “Dose-dependent effect”; with Mus musculus [20], “tde”. Also, the values for the MPE with Mus musculus [10] and in the experiment on Mus musculus [18] were 25% and 86.6%, respectively. The values for the pKi (in [11]; on Mu-type opioid receptor [12]) were 4.92 and 9.25, respectively. Further, in the experiment with Mus musculus [13], the ED50 amounted to 0.00207 µmol/kg. Besides, the result in the experiment on Mus musculus [14] was Active. In addition, the Ratio Ki in the experiment listed under Homo sapiens was found to be 21300. Further, on Mu-type opioid receptor [17], the pEC50 was 10.20. Further, the maximal effect (Emax) at Mu-type opioid receptor [17] was determined as 98.2%.

In the case of `C=C(C(N)=O)[C@H](NC(=O)[C@H](Cc1c[nH]c2ccccc12)NC(=O)[C@@H]1CCCN1C(=O)[C@@H](N)Cc1ccc(O)cc1)c1ccsc1`, the outcome in the experiment on Mus musculus [6], in the experiment on Mus musculus [7], in the experiment on Mus musculus [9] and in the experiment with Mus musculus [16] was inactive. Further, the Activity result in the experiment with Mus musculus [8] was “Dose-dependent effect”; in the experiment on Mus musculus [13], “Dose-dependent effect”; with Mus musculus [15], “Dose-dependent effect”; with Mus musculus [19], “Dose-dependent effect”; with Mus musculus [20], “tde”. In addition, the MPE in the experiment with Mus musculus [10] was determined as 25%; in the experiment with Mus musculus [18] it was 89.8%. Moreover, the negative logarithm of the Ki (pKi) in experiment [11] is 4.88; at Mu-type opioid receptor [12], 9.29. In addition, the ED50 with Mus musculus [13] was 0.00223 µmol/kg. Also, the result in the experiment with Mus musculus [14] was Active. For the same compound, the Ratio Ki in the experiment filed under Homo sapiens was found to be 25800. Further, the negative-log EC50 (pEC50) on Mu-type opioid receptor [17] was 10.19. At Mu-type opioid receptor [17], the Emax came to 97%.
